ChEMBL document CHEMBL4196217, “Structure-Based Drug Design and Identification of H2O-Soluble and Low Toxic Hexacyclic Camptothecin Derivatives with Improved Efficacy in Cancer and Lethal Inflammation Models in Vivo” (J Med Chem, 2018)
Calls of active or inactive are those of the source. The rule behind the calls is not given here.

Legend:
[1] = test system: MCF7; experiment: cells; conditions: Homo sapiens, MCF7, 48 h
Description: Cytotoxicity in human MCF7 cells assessed as reduction in cell viability incubated for 48 hrs by MTT assay

[2] = test system: HepG2; experiment: Antitumor activity against human HepG2 cells xenografted in Balb/C mouse assessed as inhibition of tumor growth at 15 mg/kg, iv dosed once per week for 30 days followed by 2 weeks observation relative untreated control; format: functional; conditions: read-out: TGI
[3] = test system: Mus musculus; experiment: Toxicity in human HepG2 cells xenografted Balb/C mouse assessed as reduction in body weight at 30 mg/kg, iv dosed once per week for 30 days followed by 2 weeks observation; format: organism-based; conditions: in vivo, 336 h
[4] = test system: Bel-7402; experiment: Cytotoxicity in human Bel7402 cells assessed as reduction in cell viability incubated for 48 hrs by MTT assay; format: functional, cell-based; conditions: Bel-7402, 48 h
[5] = test system: QGY-7703; experiment: Cytotoxicity in human QGY7703 cells assessed as reduction in cell viability incubated for 48 hrs by MTT assay; format: functional, cell-based; conditions: QGY-7703, 48 h
[6] = test system: Mus musculus; experiment: Protection against LPS-induced lethal inflammation in C57BL/6 mouse model of sepsis assessed as survival at 10 mg/kg, po dosed 0.5 hrs before LPS injection followed by 10 mg/kg, po dosing at 1 hr, 4 hrs, and 8 hrs after LPS treatment; format: functional
[7] = test system: SMMC-7721; experiment: Cytotoxicity in human SMMC7721 cells assessed as reduction in cell viability incubated for 48 hrs by MTT assay; format: functional, cell-based; conditions: SMMC-7721, 48 h
[8] = test system: Mus musculus; experiment: Toxicity in human HepG2 cells xenografted Balb/C mouse assessed as reduction in body weight at 15 mg/kg, iv dosed once per week for 30 days followed by 2 weeks observation; format: organism-based; conditions: in vivo, 336 h
[9] = test system: SGC-7901; experiment: Cytotoxicity in human SGC7901 cells assessed as reduction in cell viability incubated for 48 hrs by MTT assay; format: functional, cell-based; conditions: SGC-7901, 48 h
[10] = test system: SK-N-SH; experiment: Cytotoxicity in human SK-N-SH cells assessed as reduction in cell viability incubated for 48 hrs by MTT assay; format: functional, cell-based
[11] = Drug metabolism in plasma of C57BL/6 mouse assessed as (9S)-9-Ethyl-9-hydroxy-3-isopropyl-2,3-dihydro[1,3]-oxazino[5,6-f ]pyrano[3',4':6,7]indolizino[1,2-b]quinoline-1,10,13(9H,12H,15H)-trione formation at 2 mg/kg, iv measured up to 1 hr by LC-MS/MS analysis; format: ADME, organism-based; conditions: in vivo
[12] = test system: HepG2; experiment: Cytotoxicity in human HepG2 cells assessed as reduction in cell viability incubated for 48 hrs by MTT assay; format: functional, cell-based; conditions: HepG2, 48 h
[13] = test system: KB; experiment: Cytotoxicity in human KB cells assessed as reduction in cell viability incubated for 48 hrs by MTT assay; format: functional, cell-based
[14] = Drug metabolism in plasma of C57BL/6 mouse assessed as (S)-8-Ethyl-8-hydroxy-2-isopropyl-8H-oxazolo[4,5-f ]-pyrano[3',4':6,7]indolizino[1,2-b]quinoline-9,12(11H,14H)-dione formation at 2 mg/kg, iv measured up to 1 hr by LC-MS/MS analysis; format: ADME, organism-based; conditions: in vivo
[15] = test system: MDA-MB-231; experiment: Cytotoxicity in human MDA-MB-231 cells assessed as reduction in cell viability incubated for 48 hrs by MTT assay; format: functional, cell-based; conditions: MDA-MB-231, 48 h
[16] = test system: MGC-803; experiment: Cytotoxicity in human MGC803 cells assessed as reduction in cell viability incubated for 48 hrs by MTT assay; format: functional, cell-based; conditions: MGC-803, 48 h
[17] = test system: A549; experiment: cells; conditions: Homo sapiens, A549, 48 h
Description: Cytotoxicity in human A549 cells assessed as reduction in cell viability incubated for 48 hrs by MTT assay

[18] = Drug level in plasma of C57BL/6 mouse at 2 mg/kg, iv measured up to 1 hr by LC-MS/MS analysis; format: ADME, organism-based; conditions: in vivo
[19] = Aqueous solubility of the compound; format: physicochemical; conditions: buffer
[20] = test system: Mus musculus; experiment: Toxicity in Balb/C mouse administered as single dose measured daily for up to 28 days; format: organism-based; conditions: in vivo, 672 h
[21] = test system: Mus musculus; experiment: Toxicity in Balb/C mouse administered as daily dose for 1 week measured daily for up to 28 days; format: organism-based; conditions: in vivo
[22] = test system: Mus musculus; experiment: Reduction in IL6 level in C57BL/6 mouse model of LPS-induced sepsis at 10 mg/kg, po dosed 0.5 hrs before LPS injection followed by 20 mg/kg, po dosing at 1 hr, 4 hrs, and 8 hrs after LPS treatment; format: functional, organism-based
[23] = biological target: T1, DNA topoisomerase 1 (Homo sapiens) (UniProt P11387); experiment: Inhibition of human recombinant topoisomerase-1-mediated DNA cleavage in at 100 uM using supercoiled pHOT-1 DNA incubated for 30 mins by ethidium bromide staining based agarose gel elctrophoresis method
T1 sequence (whole entry): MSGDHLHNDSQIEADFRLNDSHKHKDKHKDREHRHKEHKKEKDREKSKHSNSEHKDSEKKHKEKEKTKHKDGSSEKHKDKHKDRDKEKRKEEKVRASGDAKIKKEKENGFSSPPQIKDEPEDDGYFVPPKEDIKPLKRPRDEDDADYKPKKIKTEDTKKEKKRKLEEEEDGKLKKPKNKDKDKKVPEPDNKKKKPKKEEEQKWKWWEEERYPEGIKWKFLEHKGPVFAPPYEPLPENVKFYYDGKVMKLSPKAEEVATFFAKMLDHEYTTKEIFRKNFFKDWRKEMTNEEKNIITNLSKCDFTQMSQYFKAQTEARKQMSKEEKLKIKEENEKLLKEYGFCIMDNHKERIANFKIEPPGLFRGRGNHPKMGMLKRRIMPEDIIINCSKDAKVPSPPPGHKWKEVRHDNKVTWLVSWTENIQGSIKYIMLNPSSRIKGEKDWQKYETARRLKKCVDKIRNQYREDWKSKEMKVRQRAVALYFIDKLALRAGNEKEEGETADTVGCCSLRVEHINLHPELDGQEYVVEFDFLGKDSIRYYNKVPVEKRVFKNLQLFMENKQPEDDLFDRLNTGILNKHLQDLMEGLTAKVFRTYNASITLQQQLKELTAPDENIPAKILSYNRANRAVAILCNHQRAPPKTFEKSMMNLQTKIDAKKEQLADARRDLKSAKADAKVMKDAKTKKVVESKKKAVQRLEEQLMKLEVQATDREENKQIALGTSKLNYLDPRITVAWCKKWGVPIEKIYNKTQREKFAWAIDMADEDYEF

[24] = biological target: T1, DNA topoisomerase 1 (Homo sapiens); experiment: Inhibition of human recombinant topoisomerase-1-mediated DNA cleavage in at 50 uM using supercoiled pHOT-1 DNA incubated for 30 mins by ethidium bromide staining based agarose gel elctrophoresis method
[25] = test system: Mus musculus; experiment: Reduction in IL6 level in C57BL/6 mouse model of LPS-induced sepsis at 10 mg/kg, po dosed 0.5 hrs before LPS injection followed by 10 mg/kg, po dosing at 1 hr, 4 hrs, and 8 hrs after LPS treatment; format: functional, organism-based
[26] = biological target: T1, DNA topoisomerase 1 (Homo sapiens); experiment: Inhibition of human recombinant topoisomerase-1 activity at 100 uM using supercoiled pHOT-1 DNA incubated for 30 mins by ethidium bromide free agarose gel elctrophoresis method
[27] = biological target: T1, DNA topoisomerase 1 (Homo sapiens); experiment: Inhibition of human recombinant topoisomerase-1 activity at 50 uM using supercoiled pHOT-1 DNA incubated for 30 mins by ethidium bromide free agarose gel elctrophoresis method
[28] = test system: HepG2; experiment: Antitumor activity against human HepG2 cells xenografted in Balb/C mouse assessed as inhibition of tumor growth at dosed intravenously once per week for 30 days followed by 2 weeks observation; format: functional, organism-based
[29] = test system: MGC-803; experiment: Potency index, ratio of IC50 for topotecan to IC50 for test compound for cytotoxicity in human MGC803 cells assessed as reduction in cell viability incubated for 48 hrs by MTT assay; format: functional
[30] = test system: HepG2; experiment: Potency index, ratio of IC50 for topotecan to IC50 for test compound for cytotoxicity in human HepG2 cells assessed as reduction in cell viability incubated for 48 hrs by MTT assay; format: functional
[31] = test system: Mus musculus; experiment: Reduction in IL6 level in C57BL/6 mouse model of LPS-induced sepsis at 4 mg/kg, po dosed 0.5 hrs before LPS injection followed by 4 mg/kg, po dosing at 1 hr, 4 hrs, and 8 hrs after LPS treatment; format: functional, organism-based
[32] = test system: Mus musculus; experiment: Reduction in IL6 level in C57BL/6 mouse model of LPS-induced sepsis at 8 mg/kg, po dosed 0.5 hrs before LPS injection followed by 8 mg/kg, po dosing at 1 hr, 4 hrs, and 8 hrs after LPS treatment; format: functional, organism-based
[33] = test system: Mus musculus; experiment: Reduction in IL6 level in C57BL/6 mouse model of LPS-induced sepsis at 2 mg/kg, iv dosed 0.5 hrs before LPS injection followed by 2 mg/kg, iv dosing at 1 hr, 4 hrs, and 8 hrs after LPS treatment; format: functional, organism-based
[34] = test system: Mus musculus; experiment: Reduction in IL6 level in C57BL/6 mouse model of LPS-induced sepsis at 4 mg/kg, iv dosed 0.5 hrs before LPS injection followed by 4 mg/kg, iv dosing at 1 hr, 4 hrs, and 8 hrs after LPS treatment; format: functional, organism-based

Row | SMILES | IC50 [1] [nM] | IC50 [4] [nM] | IC50 [5] [nM] | IC50 [7] [nM] | IC50 [9] [nM] | IC50 [12] [nM] | IC50 [13] [nM] | IC50 [15] [nM] | IC50 [16] [nM] | IC50 [17] [nM] | also measured
1 | CC[C@@]1(OC(=O)CNC(=O)CCC(=O)O)C(=O)OCc2c1cc1n(c2=O)Cc2cc3c(ccc4oc(C(C)C)nc43)nc2-1 [listing 1 of 2 here] | > 10000 | 425 | > 10000 | 8500 | > 10000 | 60 | 935 | 425 | 62 | 170 | inhibition in vivo at 15 mg/kg [2]: 86%; Activity [3]: Non-Toxic; Activity [6]: 80%; Activity [8]: Non-Toxic; IC50 [10]: 510 nM; Drug metabolism [11]: Metabolite_Notdetected; Drug metabolism [14]: Metabolite_Notdetected; Drug uptake [18]: Not Active
2 | CC[C@@]1(O)C(=O)OCc2c1cc1n(c2=O)Cc2cc3c(ccc4oncc43)nc2-1 | 1160 | 10500 | > 10000 | > 10000 | > 10000 | 64 | 3340 | 488 | 514 | 1030 | IC50 [10]: 463 nM
3 | CC[C@@]1(O)C(=O)OCc2c1cc1n(c2=O)Cc2cc3c(ccc4oc(CC(C)C)nc43)nc2-1 | 7860 | 2140 | > 10000 | 11000 | > 10000 | 79 | 2200 | 2140 | 90 | 3370 | 
4 | CC[C@@]1(OC(=O)CNC(=O)CCC(=O)[O-])C(=O)OCc2c1cc1n(c2=O)Cc2cc3c(ccc4oc(C(C)C)nc43)nc2-1.[Na+] |  |  |  |  |  |  |  |  |  |  | solubility [19]: 5070 µg/mL; MTD [20]: 60 mg/kg; MTD [21]: 30 mg/kg
5 | CC[C@@]1(OC(=O)CNC(=O)CCC(=O)O)C(=O)OCc2c1cc1n(c2=O)Cc2cc3c(ccc4oc(C(C)C)nc43)nc2-1 [listing 2 of 2 here] |  |  |  |  |  |  |  |  |  |  | Activity [22]: Active; inhibition [23]: Active; inhibition [24]: Active; Activity [25]: Active; inhibition [26]: Active; inhibition [27]: Active; TGI [28]: Dose-dependent effect
6 | CC[C@@]1(O)C(=O)OCc2c1cc1n(c2=O)Cc2cc3c(ccc4oc(C(C)C)nc43)nc2-1 | 4640 | 3480 | 11600 | 10400 | > 10000 | 16 | 2200 | 1440 | 18 | 1390 | Ratio IC50 [29]: 10; Ratio IC50 [30]: 10
7 | CC[C@@]1(OC(=O)CNC(=O)CCC(=O)O)C(=O)OCc2c1cc1n(c2=O)Cc2cc3c4c(ccc3nc2-1)OC(C(C)C)NC4=O (some centres undefined) |  |  |  |  |  |  |  |  |  |  | inhibition [24]: inactive; Activity [31]: Active; Activity [32]: Active; inhibition [26]: inactive; Activity [33]: Active; Activity [34]: Active; inhibition [27]: inactive; TGI [28]: Dose-dependent effect
